Converted amounts (≈) assume the structure as drawn. Where two headings read alike, the source gives them in different places.
How the values were obtained:
[1] = tested on: EH: Enterococcus hirae ATCC 10541; experiment: Antimicrobial activity by the agar dilution method (MIC); format: cell-based; conditions: pH 7
Description: (§1) Antimicrobial activity was determined by the agar dilution method using a culture medium (pH 7) prepared by dissolving 3 g of Bacto-Tryptone (manufactured by Difco, Co.), 3 g of meat extract, 1 g of yeast extract, 1 g of glucose, and 16 g of agar in 1 l of water.

[2] = tested on: SA: Staphylococcus aureus ATCC 6538P; experiment: as above; format: cell-based; conditions: ATCC6538P
Description: as §1

[3] = tested on: BS: Bacillus substilis No. 10707; experiment: as above; format: cell-based
Description: as §1

[4] = tested on: KP: Klebisiella pneumoniae ATCC 10031; experiment: as above; format: cell-based
Description: as §1

[5] = tested on: EC: Escherichia coli ATCC 26; experiment: as above; format: cell-based
Description: as §1

HeLa S3 cells = experiment: HeLa S3 Cell Growth Inhibition Test; format: cell-based; conditions: Homo sapiens, 72 hours incubation, Neutral Red
Method in brief: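 HeLa S3 cells seeded overnight in MEM with 10% FBS, then exposed to compound for 72 h at 37 °C. Viable cells stained with Neutral Red, dye extracted, absorbance read at 550 nm; IC50 derived against untreated cells.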

[6] = tested on: Sarcoma 180 mouse solid tumor; experiment: Antitumor activity against Sarcoma 180 mouse solid tumor; format: in vivo, mouse (ddY); conditions: Sarcoma-180, iv, 168 h
Description: To a ddY mouse were intraperitoneally transplanted 5×10^6 sarcoma 180 cells. On the seventh day from the transplant, the cells were collected from the ascites, washed once with sterilized physiological saline, and then diluted with sterilized physiological saline to prepare a cell suspension having a concentration of 5×10^7 cells/mL. This suspension was transplanted in an amount of 0.01 mL to a subcutaneous part of the right axilla of each of male ddY mice each weighing 20±1 g.
A test compound was dissolved in physiological saline containing polyoxyethylene sorbitan monolaurate. At 24 hours after the tumor transplant, 0.2 mL of the solution was intravenously administered to the tail of each of a group of five mice.

various bacteria = conditions: Japanese Published Unexamined Patent Application No. 112988/89; cited from earlier work
tumor = conditions: Japanese Published Unexamined Patent Application No. 112988/89; cited from earlier work
[7] = Staphylococcus aureus ATCC 6538P, agar dilution, pH 7, read-out: minimum inhibitory concentration (MIC), SA
[8] = Bacillus substilis No. 10707, agar dilution, pH 7, read-out: minimum inhibitory concentration (MIC), BS
[9] = Klebisiella pneumoniae ATCC 10031, agar dilution, pH 7, read-out: minimum inhibitory concentration (MIC), KP
[10] = ATCC26, Escherichia coli ATCC 26, agar dilution, pH 7, read-out: minimum inhibitory concentration (MIC), EC
[11] = HeLa S3, 72 h, HeLa S3, read-out: IC50, HeLa S3 cell growth inhibition
[12] = Staphylococcus aureus, pH 7, read-out: minimum inhibitory concentration (MIC), SA
[13] = Bacillus, pH 7, read-out: minimum inhibitory concentration (MIC), BS
[14] = pH 7, read-out: minimum inhibitory concentration (MIC), KP
[15] = HeLa S3, 72 h, read-out: IC50, HeLa S3 cell growth inhibition, HeLa S3
[16] = read-out: T/C (tumor volume ratio treated/control)
[17] = Escherichia coli, ATCC26, pH 7, read-out: minimum inhibitory concentration (MIC), EC
[18] = HeLa S3, read-out: IC50, HeLa S3 cell growth inhibition
[19] = 16 mg/kg i.v. once, 24 hours after transplant, tumor volume on day 7, read-out: T/C (tumor volume ratio treated/control)

Row | SMILES | minimum inhibitory concentration (MIC), EH [1] | MIC [2, 7] | MIC [3, 8] | MIC [4, 9] | MIC [2, 12] | MIC [3, 13] | MIC [4, 14] | further results
1 | COC(=O)NCC(=O)OCSC(=O)C(C)(O)C12CCC(C)=CC(O)C(=O)C=CC=Cc3csc(n3)C(C)N(C(=O)C1)[S+]2[O-] (stereo not drawn) [Compound 17] | 1.3 µg/mL (≈ 1.98 µM) | 0.65 µg/mL (≈ 0.991 µM) | 0.65 µg/mL (≈ 0.991 µM) | 0.65 µg/mL (≈ 0.991 µM) |  |  |  | MIC [5, 10]: 42 µg/mL (≈ 64 µM); IC50 (HeLa S3 cells; [11]): 15 nM
2 | COC(=O)NCC(=O)OCOC1C=C(C)CCC2(C(C)(O)C(=O)SCOC(=O)CNC(=O)OC)CC(=O)N(C(C)c3nc(cs3)C=CC=CC1=O)[S+]2[O-] (stereo not drawn) [Compound 18] | 5.7 µg/mL (≈ 7.12 µM) | 11 µg/mL (≈ 13.7 µM) | 11 µg/mL (≈ 13.7 µM) | 2.9 µg/mL (≈ 3.62 µM) |  |  |  | IC50 (HeLa S3 cells; [11]): 150 nM; response vs control in vivo at 4 mg/kg ([6]; 4.0 mg/kg i.v. once, 24 hours after transplant, tumor volume on day 7, read-out: T/C (tumor volume ratio treated/control)): 38%
3 | COC(=O)[C@H](CCC(=O)OCSC(=O)C(C)(O)C12CCC(C)=CC(O)C(=O)C=CC=Cc3csc(n3)C(C)N(C(=O)C1)[S+]2[O-])NC(=O)[C@@]12O[C@H]3COC(C)(C)O[C@H]3[C@@H]1OC(C)(C)O2 (stereo partly drawn) [Compound 24] | 23 µg/mL (≈ 24.5 µM) |  |  |  | 23 µg/mL (≈ 24.5 µM) | 23 µg/mL (≈ 24.5 µM) | 46 µg/mL (≈ 48.9 µM) | IC50 (HeLa S3 cells; [15]): 550 nM; response vs control in vivo at 16 mg/kg [6, 16]: 12%
4 | COCCOCCOCC(=O)OCSC(=O)C(C)(O)C12CCC(C)=CC(O)C(=O)C=CC=Cc3csc(n3)C(C)N(C(=O)C1)[S+]2[O-] (stereo not drawn) [Compound 35] | 0.39 µg/mL (≈ 0.556 µM) | 0.39 µg/mL (≈ 0.556 µM) | 0.39 µg/mL (≈ 0.556 µM) | 0.39 µg/mL (≈ 0.556 µM) |  |  |  | MIC [5, 10]: 13 µg/mL (≈ 18.5 µM); IC50 (HeLa S3 cells; [11]): 22 nM; response vs control in vivo at 2 mg/kg ([6]; 2.0 mg/kg i.v. once, 24 hours after transplant, tumor volume on day 7, read-out: T/C (tumor volume ratio treated/control)): 44%
5 | COC(=O)[C@H](CCC(=O)OCSC(=O)C(C)(O)C12CC/C(C)=C/C(O)C(=O)/C=C/C=C\c3csc(n3)C(C)N(C(=O)C1)[S+]2[O-])NC(=O)[C@@]12O[C@@H](CO)[C@@H](O)[C@@H]1OC(C)(C)O2 (stereo partly drawn) [Compound 60] | 7.3 µg/mL (≈ 8.11 µM) |  |  |  | 15 µg/mL (≈ 16.7 µM) | 15 µg/mL (≈ 16.7 µM) | 15 µg/mL (≈ 16.7 µM) | IC50 (HeLa S3 cells; [15]): 550 nM; response vs control in vivo at 8 mg/kg [6, 16]: 31%
6 | C/C1=C\C(O)C(=O)/C=C/C=C\c2csc(n2)C(C)N2C(=O)CC(C(C)(O)C(=O)SCOC(=O)CCc3ccc(O)cc3)(CC1)[S+]2[O-] (stereo not drawn) [Compound 70] | 0.91 µg/mL (≈ 1.32 µM) |  |  |  | 0.91 µg/mL (≈ 1.32 µM) | 0.057 µg/mL (≈ 0.0827 µM) | 0.91 µg/mL (≈ 1.32 µM) | MIC [5, 17]: 29 µg/mL (≈ 42.1 µM); IC50 (HeLa S3 cells; [15]): 2.6 nM
7 | COCOCc1oc(=O)oc1CSC(=O)C(C)(O)C12CC/C(C)=C/C(O)C(=O)/C=C/C=C\c3csc(n3)C(C)N(C(=O)C1)[S+]2[O-] (stereo not drawn) [Compound 77] | 0.18 µg/mL (≈ 0.264 µM) | 0.36 µg/mL (≈ 0.527 µM) | 0.36 µg/mL (≈ 0.527 µM) | 0.36 µg/mL (≈ 0.527 µM) |  |  |  | MIC [5, 10]: 11 µg/mL (≈ 16.1 µM); IC50 (HeLa S3 cells; [11]): 7.7 nM; response vs control in vivo at 8 mg/kg ([6]; 8.0 mg/kg i.v. once, 24 hours after transplant, tumor volume on day 7, read-out: T/C (tumor volume ratio treated/control)): 36%
8 | C/C1=C\C(OC2CCCCO2)C(=O)/C=C/C=C\c2csc(n2)C(C)N2C(=O)CC(C(C)(O)C(=O)SCc3oc(=O)oc3COC3C[C@H](O[Si](C)(C)C(C)(C)C)[C@@H](O[Si](C)(C)C(C)(C)C)[C@H](C)O3)(CC1)[S+]2[O-] (stereo partly drawn) [Compound 80] | 3.4 µg/mL (≈ 3.14 µM) | 3.4 µg/mL (≈ 3.14 µM) | 0.42 µg/mL (≈ 0.388 µM) | 27 µg/mL (≈ 25 µM) |  |  |  | IC50 (HeLa S3 cells; [18]): 330 nM; response vs control in vivo at 16 mg/kg [6, 19]: 37%
9 | CC[Si](CC)(CC)OC[C@H]1OC(OCc2oc(=O)oc2CSC(=O)C(C)(O)C23CC/C(C)=C/C(OC4CCCCO4)C(=O)/C=C/C=C\c4csc(n4)C(C)N(C(=O)C2)[S+]3[O-])C[C@@H](O[Si](CC)(CC)CC)[C@@H]1O[Si](CC)(CC)CC (stereo partly drawn) [Compound 82] | 4.2 µg/mL (≈ 3.47 µM) | 2.1 µg/mL (≈ 1.73 µM) |  | 33 µg/mL (≈ 27.2 µM) |  |  |  | IC50 (HeLa S3 cells; [18]): 800 nM; response vs control in vivo at 16 mg/kg [6, 19]: 36%
10 | C/C1=C\C(OC2CCCCO2)C(=O)/C=C/C=C\c2csc(n2)C(C)N2C(=O)CC(C(C)(O)C(=O)SCc3oc(=O)oc3COC3C[C@@H](O)[C@H](O)[C@@H](CO)O3)(CC1)[S+]2[O-] (stereo partly drawn) [Compound 83] | 0.59 µg/mL (≈ 0.679 µM) |  |  |  | 0.32 µg/mL (≈ 0.368 µM) | 0.037 µg/mL (≈ 0.0426 µM) | 4.7 µg/mL (≈ 5.41 µM) | MIC [5, 17]: 4.7 µg/mL (≈ 5.41 µM); IC50 (HeLa S3 cells; [15]): 11 nM
11 | C/C1=C\C(O)C(=O)/C=C/C=C\c2csc(n2)C(C)N2C(=O)CC(C(C)(O)C(=O)SCc3oc(=O)oc3CO)(CC1)[S+]2[O-] (stereo not drawn) [Compound 86] | 0.16 µg/mL (≈ 0.25 µM) |  |  |  | 0.33 µg/mL (≈ 0.517 µM) | 0.16 µg/mL (≈ 0.25 µM) | 0.16 µg/mL (≈ 0.25 µM) | MIC [5, 17]: 10 µg/mL (≈ 15.7 µM); IC50 (HeLa S3 cells; [15]): 610 nM
12 | COCCOCC(=O)OCc1oc(=O)oc1CSC(=O)C(C)(O)C12CC/C(C)=C/C(OC3CCCCO3)C(=O)/C=C/C=C\c3csc(n3)C(C)N(C(=O)C1)[S+]2[O-] (stereo not drawn) [Compound 100] | 0.33 µg/mL (≈ 0.393 µM) | 0.081 µg/mL (≈ 0.0965 µM) | 0.041 µg/mL (≈ 0.0489 µM) | 0.65 µg/mL (≈ 0.775 µM) |  |  |  | MIC [5, 10]: 2.6 µg/mL (≈ 3.1 µM); IC50 (HeLa S3 cells; [11]): 18 nM; response vs control in vivo at 16 mg/kg [6, 19]: 30%
13 | C/C1=C\C(O)C(=O)/C=C/C=C\c2csc(n2)C(C)N2C(=O)CC(C(C)(O)C(=O)SCOC(=O)CCCNC(=O)C(C)(CO)CO)(CC1)[S+]2[O-] (stereo not drawn) [Compound 139] | 12 µg/mL (≈ 16.2 µM) |  |  |  | 25 µg/mL (≈ 33.7 µM) | 12 µg/mL (≈ 16.2 µM) | 25 µg/mL (≈ 33.7 µM) | response vs control in vivo at 4 mg/kg [6, 16]: 33%
14 | COC(=O)[C@H](CCC(=O)OCSC(=O)C(C)(O)C12CC/C(C)=C/C(O)C(=O)/C=C/C=C\c3csc(n3)C(C)N(C(=O)C1)[S+]2[O-])NC(=O)C1CCC(=O)N1 (stereo partly drawn) [Compound 143] | 0.29 µg/mL (≈ 0.365 µM) |  |  |  | 0.29 µg/mL (≈ 0.365 µM) | 0.29 µg/mL (≈ 0.365 µM) | 0.59 µg/mL (≈ 0.742 µM) | MIC [5, 17]: 19 µg/mL (≈ 23.9 µM); response vs control in vivo at 8 mg/kg [6, 16]: 27%
15 | C/C1=C\C(O)C(=O)/C=C/C=C\c2csc(n2)C(C)N2C(=O)CC(C(C)(O)C(=O)SCOC(=O)CCCNC(=O)[C@@H]3CCC(=O)N3)(CC1)[S+]2[O-] (stereo partly drawn) [Compound 144] | 5.8 µg/mL (≈ 7.87 µM) |  |  |  | 12 µg/mL (≈ 16.3 µM) | 12 µg/mL (≈ 16.3 µM) | 12 µg/mL (≈ 16.3 µM) | response vs control in vivo at 8 mg/kg [6, 16]: 26%
16 | C/C1=C\C(O)C(=O)/C=C/C=C\c2csc(n2)C(C)N2C(=O)CC(C(C)(O)C(=O)SCOC(=O)CCCN3CCCC3=O)(CC1)[S+]2[O-] (stereo not drawn) [Compound 145] | 7.7 µg/mL (≈ 11.1 µM) |  |  |  | 15 µg/mL (≈ 21.6 µM) | 7.7 µg/mL (≈ 11.1 µM) | 7.7 µg/mL (≈ 11.1 µM) | response vs control in vivo at 4 mg/kg [6, 16]: 23%
17 | C/C1=C\C(O)C(=O)/C=C/C=C\c2csc(n2)C(C)N2C(=O)CC(C(C)(O)C(=O)SCc3oc(=O)oc3COC(=O)CN(C)C)(CC1)[S+]2[O-] (stereo not drawn) [Compound 158] | 0.33 µg/mL (≈ 0.456 µM) |  |  |  | 0.33 µg/mL (≈ 0.456 µM) | < 0.041 µg/mL | 1.3 µg/mL (≈ 1.8 µM) | response vs control in vivo at 32 mg/kg [6, 16]: 31%
18 | CC1=CC(O)C(=O)C=CC=Cc2csc(n2)C(C)NC(=O)CC2(CC1)[S+]([O-])SC(=O)C2(C)O (stereo not drawn) [DC107] |  |  |  |  |  |  |  | antimicrobial activity (various bacteria): antimicrobial activity against various bacteria; antitumor activity (tumor): antitumor activity

Source: patent publication US5981558A, “DC107 derivatives” (Kyowa Hakko Kogyo Co., Ltd., priority 1996, dated 1999)
